Legend:
[1] = target: T1, RORγt ligand-binding domain (RORγt-LBD) (Homo sapiens, UniProt P51449); assay: Time-resolved FRET (TR-FRET) RORγt coactivator assay (RIP140 peptide displacement); type: biochemical; conditions: ligand-dependent coactivator-RORγt binding
T1 construct: 20 nM recombinantly expressed RORγ-LBD fused to GST
T1 sequence (P51449 269-508 limits assumed): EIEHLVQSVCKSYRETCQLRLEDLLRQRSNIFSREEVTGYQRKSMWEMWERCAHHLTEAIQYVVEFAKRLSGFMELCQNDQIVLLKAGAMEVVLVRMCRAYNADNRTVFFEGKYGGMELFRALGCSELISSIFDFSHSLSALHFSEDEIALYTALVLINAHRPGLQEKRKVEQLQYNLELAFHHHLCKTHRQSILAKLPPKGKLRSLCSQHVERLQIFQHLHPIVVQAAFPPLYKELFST
From the text: Time-resolved FRET (TR-FRET) RORγt coactivator assay was used to identify RORγ modulator compounds with ligand-dependent coactivator displacement. The assay uses a d2-labeled anti-GST antibody, synthetic N-terminally biotinylated peptide which is derived from nuclear receptor coactivator protein RIP140, and a RORγt ligand-binding domain (RORγt-LBD) that is tagged with glutathione-S-transferase (GST). The influence of compounds on the RORγ-peptide interaction relies on the binding dependent energy transfer from a donor to an acceptor fluorophor attached to the binding partner of interest. […] For reduction of background from compound fluorescence, TR-FRET method makes use of generic fluorophore labels and time resolved detection.
The assays were done in a final volume of 20 μl in a 384 well plate in a CHAPS buffer (2 mM CHAPS; 1 mM DTT, 2 mM EDTA; 0.1% BSA), containing 20 nM recombinantly expressed RORγ-LBD fused to GST, 30 nM N-terminally biotinylated peptide, 1 nM streptavidin-terbium conjugate and 20 nM d2 labeled-anti-GST. Test compounds were diluted using 10 mM stock solution. The range of the final compound concentrations used in this test was from 0.3 nM to 30 μM (logarithmic scale). DMSO content of the samples was kept at 1%. The assay was equilibrated for 2 hours in the dark at room temperature in 384 well plates (Falcon). The signal was detected by an Ultra384 reader (TECAN). […] Compounds that promote coactivator displacement induce a concentration-dependent decrease in time-resolved fluorescent signal. Data were collected and analyzed using GraphPad Prism software (GraphPad Software V5.02, San Diego Calif. USA). IC50 in μM and E max in % were reported for each compound.

[2] = target: T2, human RORγt (Homo sapiens, UniProt P51449); assay: IL-17 secretion from EL4 murine lymphoma overexpressing human RORγt; type: cell-based; set-up: V5-His (named only through the vector pcDNA3.1D/V5-His-TOPO); expressed in transfected cells; conditions: IL-17 secretion inhibition in human RORγt-transfected EL4 Tcells, PMA/ionomycin stimulation
T2 sequence (P51449 1-497 isoform P51449-2): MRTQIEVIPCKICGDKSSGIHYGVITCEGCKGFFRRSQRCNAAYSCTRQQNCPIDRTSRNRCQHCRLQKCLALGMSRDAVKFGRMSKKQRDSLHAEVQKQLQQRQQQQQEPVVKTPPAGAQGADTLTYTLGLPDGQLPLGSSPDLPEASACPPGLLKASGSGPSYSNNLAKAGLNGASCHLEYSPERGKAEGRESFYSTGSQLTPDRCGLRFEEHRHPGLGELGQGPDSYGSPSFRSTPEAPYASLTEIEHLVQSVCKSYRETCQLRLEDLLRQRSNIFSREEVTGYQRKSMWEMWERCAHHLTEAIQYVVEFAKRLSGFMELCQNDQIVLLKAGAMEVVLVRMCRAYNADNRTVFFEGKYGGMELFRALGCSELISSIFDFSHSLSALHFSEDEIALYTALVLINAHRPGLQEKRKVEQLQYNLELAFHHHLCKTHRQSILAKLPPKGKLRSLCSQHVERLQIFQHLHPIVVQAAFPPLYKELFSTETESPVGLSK
Description: Murine EL-4 lymphoma cell line overexpressing human RORγt was used in this functional assay to assess compound ability to inhibit IL-17 cytokine secretion.
EL-4 cells are maintained in a standard culture medium RPMI supplemented with 10% fetal calf serum, 1% sodium pyruvate, 1% essential amino acids and 1% antibiotics at 37° C. in a humidified atmosphere of 5% CO2 and 95% air. Culture medium was changed every 2 days. EL4 cells were transfected with a plasmid encoding hRORγt (sequence identical to published sequence NM 001001523). […] Briefly, 1 μg of DNA/1 million cells was served to transfect EL-4 cells. Cell/DNA suspension was transferred into certified cuvette and the electroporation of RORγt plasmid was carried out using appropriate Nucleofector® program.
Cells were seeded in 96 well plates at a density of 150000 cells/well then treated with compounds of this invention at indicated concentrations and incubated for 24 hours at 37° C. in a humidified atmosphere of 5% CO2 and 95% air. EL-4 cells were pretreated with test compounds (RORγ modulators) and stimulated with PMA (10 ng/mL) and ionomycin (1 μM final concentration) in the presence of test compound concentrations for additional 24 h at 37° C. in a humidified atmosphere of 5% CO2 and 95% air. Subsequently, supernatants were collected (after centrifugation at 300 g for 10 minutes) to determine the concentrations of IL-17 by HTRF (CisBio, France) or ELISA (R&D Systems Europe) according to the manufacturer's protocols.

[3] = target: T2, human RORγt; assay: RORE Luciferase/RORγt transactivation assay (IL-17 promoter luciferase reporter in COS-7 cells); type: cell-based; set-up: V5-His (named only through the vector pcDNA3.1D/V5-His-TOPO); expressed in transfected cells; host or cells: COS-7 (monkey kidney); conditions: RORγt activity inhibition, luciferase activity in transfected COS-7 cells, 20 h
Summary of the method: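 COS-7 cells co-transfected with human RORγt and luciferase reporter driven by 4.3 kb IL-17 promoter with CNS enhancer, seeded in serum-free, phenol red-free DMEM. Compounds added at 0.3% DMSO final; luciferase read by Steady-Glo luminescence. IC50 (μM) and Emax (%) reported.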

| Compound | IC50 [1] | IC50 [2] | IC50 [3] |
| --- | --- | --- | --- |
| Cc1ccc(C(NC(=O)Cc2ccc(N3CCS(=O)(=O)CC3)c(C)c2)c2ccc(C)o2)c(C(F)(F)F)c1 (stereo not drawn) [Cpd. 10, 2-[4-(1,1-dioxo-1-thiomorpholin-4-yl)-3-methylphenyl]-N-{[4-methyl-2-(trifluoromethyl)phenyl](5-methylfuran-2-yl)methyl}acetamide] | 0.1 to 1 µM | 0.1 to 1 µM | 0.1 to 1 µM |
| Cc1ccc(C(NC(=O)Cc2ccc(N3CCS(=O)(=O)CC3)cc2)c2ccccc2)c(N2CC3CC3C2)c1 (stereo not drawn) [Cpd. 22, N-[(2-{3-azabicyclo[3.1.0]hexan-3-yl}-4-methylphenyl)(phenyl)methyl]-2-[4-(1,1-dioxo-1-thiomorpholin-4-yl)phenyl]acetamide] | < 1 µM | 0.1 to 1 µM | < 0.1 µM |
| Cc1ccc(C(NC(=O)Cc2ccc(N3CCS(=O)(=O)CC3)c(C)c2)c2ccc(C)o2)c(N2CCCCC2)c1 (stereo not drawn) [Cpd. 12, 2-[4-(1,1-dioxo-1-thiomorpholin-4-yl)-3-methylphenyl]-N-{[4-methyl-2-(piperidin-1-yl)phenyl](5-methylfuran-2-yl)methyl}acetamide] | < 1 µM | < 1 µM | < 0.1 µM |
| Cc1ccc(C(NC(=O)Cc2cc(N3CCS(=O)(=O)CC3)ccc2C)c2ccc(C)o2)c(N2CCCCC2)c1 (stereo not drawn) [Cpd. 5, 2-[5-(1,1-dioxo-1-thiomorpholin-4-yl)-2-methylphenyl]-N-{[4-methyl-2-(piperidin-1-yl)phenyl](5-methylfuran-2-yl)methyl}acetamide] | 0.1 to 1 µM | 0.1 to 1 µM | 0.1 to 1 µM |
| CC(C)CC(NC(=O)C1(c2ccc(N3CCS(=O)(=O)CC3)cc2)CC1)c1ccccc1N1CCCCC1 (stereo not drawn) [Cpd. 59, 1-[4-(1,1-dioxo-1-thiomorpholin-4-yl)phenyl]-N-[3-methyl-1-[2-(piperidin-1-yl)phenyl]butyl]cyclopropane-1-carboxamide] | 0.1 to 1 µM | 0.1 to 1 µM | 1 to 10 µM |
| COc1ccc(C(NC(=O)Cc2ccc(N3CCS(=O)(=O)CC3)c(C)c2)c2ccc(C)o2)c(N2CC3CC3C2)c1 (stereo not drawn) [Cpd. 16, N-[(2-{3-azabicyclo[3.1.0]hexan-3-yl}-4-methoxyphenyl)(5-methylfuran-2-yl)methyl]-2-[4-(1,1-dioxo-1-thiomorpholin-4-yl)-3-methylphenyl]acetamide] | < 1 µM | < 1 µM | 0.1 to 1 µM |
| Cc1ccc(C(NC(=O)Cc2ccc(N3CCS(=O)(=O)CC3)cc2C)c2ccc(C)o2)c(Br)c1 (stereo not drawn) [Cpd. 21, N-[(2-bromo-4-methylphenyl)(5-methylfuran-2-yl)methyl]-2-[4-(1,1-dioxo-1-thiomorpholin-4-yl)-2-methylphenyl]acetamide] | < 1 µM | 0.1 to 1 µM | < 0.1 µM |

The next lines start with the values.

| IC50 [1] | IC50 [2] | IC50 [3] | Compound |
| --- | --- | --- | --- |
| < 1 µM | 0.1 to 1 µM | 0.1 to 1 µM | Cc1ccc(C(NC(=O)C2(c3cnc(N4CCS(=O)(=O)CC4)nc3)CC2)c2ccc(Cl)cc2Cl)o1 (stereo not drawn) [Cpd. 54, N-[(2,4-dichlorophenyl)(5-methylfuran-2-yl)methyl]-1-[2-(1,1-dioxo-1-thiomorpholin-4-yl)pyrimidin-5-yl]cyclopropane-1-carboxamide] |
| 0.1 to 1 µM | < 1 µM | < 0.1 µM | COc1ccc(C(NC(=O)C2(c3ccc(N4CCS(=O)(=O)CC4)cc3)CC2)c2ccc(C)o2)c(N2CCCCCC2)c1 (stereo not drawn) [Cpd. 46, N-{[2-(azepan-1-yl)-4-methoxyphenyl](5-methylfuran-2-yl)methyl}-1-[4-(1,1-dioxo-1-thiomorpholin-4-yl)phenyl]cyclopropane-1-carboxamide] |
| < 1 µM | < 1 µM | < 0.1 µM | Cc1ccc(C(NC(=O)Cc2ccc(N3CCS(=O)(=O)CC3)nc2)c2ccc(C)o2)c(N2CCCCC2)c1 (stereo not drawn) [Cpd. 27, 2-[6-(1,1-dioxo-1-thiomorpholin-4-yl)pyridin-3-yl]-N-{[4-methyl-2-(piperidin-1-yl)phenyl](5-methylfuran-2-yl)methyl}acetamide] |
| 0.1 to 1 µM | 1 to 10 µM |  | Cc1ccc(C(NC(=O)C2(c3cc(N4CCS(=O)(=O)CC4)ccc3C)CC2)c2ccc(C)o2)c(C)c1 (stereo not drawn) [Cpd. 70, N-[(2,4-dimethylphenyl)(5-methylfuran-2-yl)methyl]-1-[5-(1,1-dioxo-1-thiomorpholin-4-yl)-2-methylphenyl]cyclopropane-1-carboxamide] |
| < 1 µM | 0.1 to 1 µM | < 0.1 µM | Cc1ccc(C(NC(=O)C2(c3cnc(N4CCS(=O)(=O)CC4)nc3)CC2)c2ccc(Cl)cc2C)o1 (stereo not drawn) [Cpd. 53, N-[(4-chloro-2-methylphenyl)(5-methylfuran-2-yl)methyl]-1-[2-(1,1-dioxo-1-thiomorpholin-4-yl)pyrimidin-5-yl]cyclopropane-1-carboxamide] |
|  | < 1 µM | < 0.1 µM | Cc1ccc(C(NC(=O)C2(c3ncc(N4CCS(=O)(=O)CC4)cc3C)CC2)c2ccc(C)o2)c(C)c1 (stereo not drawn) [Cpd. 72, N-[(2,4-dimethylphenyl)(5-methylfuran-2-yl)methyl]-1-[5-(1,1-dioxo-1-thiomorpholin-4-yl)-3-methylpyridin-2-yl]cyclopropane-1-carboxamide] |
| < 1 µM | 0.1 to 1 µM | < 0.1 µM | Cc1ccc(C(NC(=O)C2(c3ccc(N4CCS(=O)(=O)CC4)c(C)n3)CC2)c2ccc(C)o2)c(C)c1 (stereo not drawn) [Cpd. 71, N-[(2,4-dimethylphenyl)(5-methylfuran-2-yl)methyl]-1-[5-(1,1-dioxo-1-thiomorpholin-4-yl)-6-methylpyridin-2-yl]cyclopropane-1-carboxamide] |
|  | 1 to 10 µM | 0.1 to 1 µM | COc1ccc(C(NC(=O)C2(c3cnc(N4CCS(=O)(=O)CC4)nc3)CC2)c2ccc(C)o2)c(C)c1 (stereo not drawn) [Cpd. 57, 1-[2-(1,1-dioxo-1-thiomorpholin-4-yl)pyrimidin-5-yl]-N-[(4-methoxy-2-methylphenyl)(5-methylfuran-2-yl)methyl]cyclopropane-1-carboxamide] |

Source: patent publication US11077115B2, “Rorgamma modulators and uses thereof” (Genfit, priority 2017, dated 2021)
